From publication PMC11112612, “Sulfonylureas exert antidiabetic action on adipocytes by inhibition of PPARγ serine 273 phosphorylation” (Molecular Metabolism, 2024)

How the values were obtained:
[1] = target: T1, peroxisome proliferator-activated receptor γ (PPARγ) (Homo sapiens, UniProt P37231); test: in vitro CDK5/P35 kinase assay on PPARγ LBD (ADP-Glo, phospho-Ser-273 Western blot); histone H1 phosphorylation not inhibited; PPRE luciferase in HEK293T; type: biochemical
T1 construct: gene PPARG; recombinant PPARγ LBD
T1 sequence (P37231 231-505 limits assumed): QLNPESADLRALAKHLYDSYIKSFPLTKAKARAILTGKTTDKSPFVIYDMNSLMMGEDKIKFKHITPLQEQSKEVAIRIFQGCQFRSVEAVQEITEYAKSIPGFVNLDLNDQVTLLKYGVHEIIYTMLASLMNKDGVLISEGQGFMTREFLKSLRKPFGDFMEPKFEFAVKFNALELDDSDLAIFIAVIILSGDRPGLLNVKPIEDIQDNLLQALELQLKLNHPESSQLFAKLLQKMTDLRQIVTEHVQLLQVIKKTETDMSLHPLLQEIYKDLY
T1 sequence (Q00535 whole entry partner, the tested form may be a part): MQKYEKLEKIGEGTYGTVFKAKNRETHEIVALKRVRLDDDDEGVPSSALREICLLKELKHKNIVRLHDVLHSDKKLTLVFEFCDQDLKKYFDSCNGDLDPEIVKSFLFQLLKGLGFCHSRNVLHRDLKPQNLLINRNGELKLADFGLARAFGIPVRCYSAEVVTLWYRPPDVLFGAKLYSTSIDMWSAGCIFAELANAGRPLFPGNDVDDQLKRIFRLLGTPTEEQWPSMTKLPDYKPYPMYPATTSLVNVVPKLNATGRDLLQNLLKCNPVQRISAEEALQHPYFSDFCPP
T1 sequence (Q15078 2-307 partner): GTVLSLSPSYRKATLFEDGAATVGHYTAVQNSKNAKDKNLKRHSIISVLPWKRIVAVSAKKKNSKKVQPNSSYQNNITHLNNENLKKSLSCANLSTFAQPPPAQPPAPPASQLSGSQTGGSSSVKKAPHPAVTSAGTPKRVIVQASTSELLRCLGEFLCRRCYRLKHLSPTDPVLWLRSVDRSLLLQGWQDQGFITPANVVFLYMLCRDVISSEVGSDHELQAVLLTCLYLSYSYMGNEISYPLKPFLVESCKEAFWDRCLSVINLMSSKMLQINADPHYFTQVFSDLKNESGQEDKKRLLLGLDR

[2] = target: T1, peroxisome proliferator-activated receptor γ (PPARγ); test: in vitro CDK5/P35 kinase assay on PPARγ LBD (ADP-Glo, phospho-Ser-273 Western blot); histone H1 phosphorylation not inhibited; weak PPRE luciferase activation; type: biochemical

Row | IC50 [2] [nM] | Compound | IC50 [1] [nM]
1 |  | COc1ccc(Cl)cc1C(=O)NCCc1ccc(S(=O)(=O)NC(=O)NC2CCCCC2)cc1 [glibenclamide] | 25
2 | 378 | CCC1=C(C)CN(C(=O)NCCc2ccc(S(=O)(=O)NC(=O)N[C@H]3CC[C@H](C)CC3)cc2)C1=O [glimepiride] | 
